Results taken from US20070122830A1, “Prohibitin-directed diagnostics and therapeutics for cancer and chemotherapeutic drug resistance” (Aurelium BioPharma Inc., priority 2005, published 2007).

What was measured:
[1] = tested on: prohibitin; experiment: Prohibitin silencing by siRNA in SKOV3 cells, anti-prohibitin immunoblot; assay type: cell-based, human; conditions: for decrease in prohibitin: FIG. 7
Source text: (§1) To establish the importance of prohibitin to the expression of the drug-resistant phenotype in MDA cell lines, prohibitin expression was silenced using RNAi. Briefly, the following siRNA duplexes targeting the human prohibitin mRNA were designed and purchased either from Ambion (Austin, Tex.) or Invitrogen (Carlsbad, Calif.). The siRNA duplex sequences corresponding to nucleotides 425 through 443 (GenBank SEQ ID NUMBER: U49725.1) targeting the start of the prohibitin mRNA transcript were:
(§2) For a typical siRNA transfection, 1 nmole of the annealed siRNA duplex was mixed with 1.4 ml of Opti-MEM reagent (Invitrogen). In another tube, […] of Oligofectamine reagent (Invitrogen, Carlsbad, Calif.) was mixed with […] of Opti-MEM. The two solutions were combined and mixed gently by inversion and incubated for 20 min. at RT. The resulting solution was added to the cultured cells drop by drop in a 10 cm dish (cells are approximately 40-50% confluent). The next day the transfected cells were trypsinized and seeded in 6 or 96-well plates and further incubated for the indicated amount of time (assay dependent) before further analysis.
(§3) Targeted silencing of prohibitin was performed as described in Example 2 above.

[2] = tested on: prohibitin; experiment: Prohibitin silencing by siRNA in MCF-7 cells, anti-prohibitin immunoblot; assay type: cell-based, human; conditions: MCF-7 cell line; FIG. 6
Source text: as §1, §2, §3

[3] = tested on: hematological tumor cells; experiment: Hematological tumor model in MHC-matched mice, prohibitin siRNA plus chemotherapy; assay type: in vivo; conditions: Example 8
Experimental: In order to determine whether targeting prohibitin is useful in treating a preexisting cancerous condition, MHC-matched mice, 5 to 7 weeks old, receive a subcutaneous (s.c.) injection of the cells 5×10^5 hematological tumor cells, and tumors are allowed to form. Tumor growth starting on the first day of treatment is measured by palpitation, and the volume of the xenograft is monitored every 4 days. Tumors are allowed to grow to a sufficient size (5.5 mm) for appropriate analysis of the effects of prohibitin treatment on tumor sensitivity to chemotherapeutic drugs. Mice are then treated with a prohibitin siRNA (3 μg daily for 16 days) designed to decrease the level of expression of prohibitin. […]
The animal's weight is measured every 4 days. Tumor growth starting on the first day of treatment is measured by palpitation and the volume of the xenograft is monitored every 4 days. […] Tumor tissue is excised from the mice and its weight is measured. […] Tumor cell count is determined by trypsinizing tumors in DMEM medium supplemented with 10% fetal bovine serum until cells are in free suspension. […]
Liposome formulations are produced as described previously (Shi et al. (2000) Proc. Natl. Acad. Sci. USA. 97(13): 7567-7572). […] The mean vesicle diameters are determined by quasielastic light scattering using a Microtrac Ultrafine Particle Analyzer (Leeds-Northrup, St. Petersburg, Fla.). […]

Q: What does the source list for “prohibitin siRNA: siRNA duplex to human prohibitin mRNA nt 425-443; sense 5′-GGAAGUGGUCUGUCUGUUAtt-3′, antisense 5′-UAACAGACAGACCACUUCCtt-3′ (sense GGAAGUGGUCUGUCUGUUATT; antisense UAACAGACAGACCACUUCCTT; chemistry not given here)”?
A: repeat of prohibitin silencing ([1]; FIG. 8): confirmed, albeit with increased prohibitin expression; decrease in prohibitin ([1]; six days after treatment): 71%; decrease in prohibitin ([1]; three days after treatment): ~93%; decrease in prohibitin expression as compared to mock siRNA [2]: 37%; sensitivity of hematological tumors to chemotherapeutic drug treatment ([3]; siRNA 3 μg daily for 16 days with taxol or doxorubicin): increases the sensitivity; prognosis (tumor size, tumor cells) vs targeting agent only or drug only ([3]; siRNA plus taxol or doxorubicin): better prognosis (i.e., smaller tumor or fewer tumor cells)
